Results taken from patent publication US20220362273A1 (priority 2021, published 2022).

Tests used:
Details in all cases: mouse, in vivo
[1] = test system: skin exposed to nitrogen mustard (NM); design: species or system C57Bl/6 mice
NM-challenged skin = test system: NM-challenged skin; design: species or system mice
[2] = test system: mice challenged with topical nitrogen mustard (NM)
iNOS = test system: iNOS; design: species or system mice

SMILES	skin thickness by bi-fold caliper measurements [1]	inflammatory cells in skin (NM-challenged skin)	skin thickness (NM-challenged skin)	lesion area at day 5 [2]	lesion size [2]	systemic toxicity [2]	iNOS levels (relative iNOS gene expression) (iNOS)
CC(=O)S[C@@H]1CC2=CC(=O)CC[C@]2(C)[C@H]2CC[C@@]3(C)[C@@H](CC[C@@]34CCC(=O)O4)[C@H]12 [spironolactone]	showed efficacy in reducing skin thickness	significant reduction	decrease in thickness	reduce lesion area	dose dependent reduction	sustained systemic toxicity	
C=C1CC[C@H](O)C/C1=C/C=C1\CCC[C@]2(C)[C@@H]([C@H](C)CCCC(C)(C)O)CC[C@@H]12 [25(OH)D, 25-hydroxyvitamin D3]							responded
